Experiments:
[1] = test system: Green Setaria viridis; assay: Post-emergence control experiment of R configuration compound activity (weeds 4-5 leaf stage, 25 days); type: in vivo
Description: (§1) Experiment on weeding effect in post-emergence stage: after 3-4 weeks of sowing, the test plants were treated in the 1.5-2 leaf stage of the directly sowed rice Longyang 16, and the 4-5 leaf stage of weeds. After the application of the compounds of the present invention, the plants were cultured for 25 days in the greenhouse, and then the experimental results of the weeding were counted.

[2] = test system: Digitaria sanguinalis; assay: as above; type: in vivo
Description: as §1

[3] = test system: Leptochloa chinensis; assay: as above; type: in vivo
Description: as §1

[4] = test system: Abutilon theophrasti; assay: as above; type: in vivo
Description: as §1

[5] = test system: Amaranthus retroflexus; assay: Weeding effect in post-emergence stage (greenhouse pot spray); type: in vivo
Summary of the method: (§2)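 Greenhouse post-emergence test: compounds were sprayed at 500, 250, 125, 60 and 15 g a.i./ha onto plants 2 weeks after sowing, and fresh weight control rates were averaged from three replicates 3 weeks later.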

[6] = test system: Stellaria media; assay: as above; type: in vivo
Summary of the method: as §2

[7] = test system: Setaria viridis; assay: as above; type: in vivo
Summary of the method: as §2

[8] = test system: Digitaria sanguinalis; assay: as above; type: in vivo
Summary of the method: as §2

[9] = test system: Echinochloa crusgalli; assay: as above; type: in vivo
Summary of the method: as §2

[10] = test system: Abutilon theophrasti; assay: as above; type: in vivo
Summary of the method: as §2

[11] = test system: weeds; assay: Actual control effects and combined effects of mixtures of active ingredients (i) and (ii), stem-leaf treatment, Gowing method; type: in vivo; conditions: stem-leaf treatment, 20 days
[12] = test system: Rice (Longyang 16); assay: Post-emergence control experiment of R configuration compound activity (directly sowed rice 1.5-2 leaf stage, 25 days); type: in vivo
Description: as §1
Longyang 16 is a representative and important long-grain fragrant rice in Northeast China. Long-grain fragrant rice is more sensitive to herbicides, especially to HPPD herbicides such as Mesotrione, Benzobicylon and the like, which are prone to causing phytotoxicity.

[13] = test system: Monochoria vaginalis; assay: Transplanted rice safety evaluation and weed control effect evaluation in rice field; type: in vivo; conditions: Table 8, dose 60 g a.i./ha
Text: (§3) Transplanted rice safety evaluation and weed control effect evaluation in rice field:
(§4) Rice field soil was loaded into a 1/1,000,000 ha pot. The seeds of echinochloa crusgali, scirpus juncoides, Bidens tripartita, Sagittaria trifolia, Monochoria vaginalis and Leptochloa chinensis were sowed and gently covered with soil, then left to stand still in greenhouse in the state of 0.5-1 cm of water storage. The tuber of Sagittaria trifolia was planted in the next day or 2 days later. It was kept at 3-4 cm of water storage thereafter. The weeds were treated by dripping the WP or SC water diluents prepared according to the common preparation method of the compounds of the present invention with pipette homogeneously to achieve specified effective amount when echinochloa crusgali, scirpus juncoides, Bidens tripartita, Monochoria vaginalis and Leptochloa chinensis reached 0.5 leaf stage and Sagittaria trifolia reached the time point of primary leaf stage.
(§5) The fertility condition of echinochloa crusgali, scirpus juncoides, Bidens tripartita, Leptochloa chinensis, Sagittaria trifolia and Monochoria vaginalis 14 days after the treatment of the compound of the invention and the fertility condition of rice 21 days after the treatment of the compound of the invention respectively with the naked eye. Evaluate the weed control effect with 0-5 activity standard level. Many compounds show excellent activity and selectivity.

[14] = test system: Leptochloa chinensis; assay: as above; type: in vivo; conditions: Table 8, dose 60 g a.i./ha
Text: as §3, §4, §5

[15] = test system: Echinochloa crusgali; assay: as above; type: in vivo; conditions: Table 8, dose 60 g a.i./ha
Text: as §3, §4, §5

[16] = test system: Sagittaria trifolia; assay: as above; type: in vivo; conditions: Table 8, dose 60 g a.i./ha
Text: as §3, §4, §5

[17] = test system: Rice; assay: as above; type: in vivo, rice (japonica rice/Indica rice); conditions: Table 8, dose 60 g a.i./ha
Description: as §3
In addition, the rice field soil that loaded into the 1/1,000,000 ha pot was leveled to keep water storage at 3-4 cm depth. The 3 leaf stage rice (japonica rice/Indica rice) was transplanted at 3 cm of transplanting depth the next day. The compound of the present invention was treated by the same way after 5 days of transplantation.
as §5

Compound: Cc1nnc(NC(=O)c2ccc(C(F)(F)F)c([S+](C)[O-])c2F)o1 (racemic) [Compound 1-2]
- Green Setaria viridis (60 g a.i./ha) inhibition rate ([1]; 60 g a.i./ha): 20%
- Digitaria sanguinalis (30 g a.i./ha) inhibition rate ([2]; 30 g a.i./ha): 0%
- Leptochloa chinensis (60 g a.i./ha) inhibition rate ([3]; 60 g a.i./ha): 0%
- Ablation theophrasti (30 g a.i./ha) inhibition rate ([4]; 30 g a.i./ha): 60%
- Amaranthus retroflexus (activity level) ([5]; Table 2, dose 60 g a.i./ha): 4 (Level 4: growth control rate is greater than or equal to 60% and less than 85%)
- Amaranthus retroflexus (activity level) ([5]; Table 2, dose 125 g a.i./ha): 4 (Level 4: growth control rate is greater than or equal to 60% and less than 85%)
- Amaranthus retroflexus (activity level) ([5]; Table 2, dose 250 g a.i./ha): 4 (Level 4: growth control rate is greater than or equal to 60% and less than 85%)
- Amaranthus retroflexus (activity level) ([5]; Table 2, dose 500 g a.i./ha): 4 (Level 4: growth control rate is greater than or equal to 60% and less than 85%)
- Stellaria media (activity level) ([6]; Table 2, dose 60 g a.i./ha): 3 (Level 3: growth control rate is greater than or equal to 40% and less than 60%)
- Stellaria media (activity level) ([6]; Table 2, dose 125 g a.i./ha): 3 (Level 3: growth control rate is greater than or equal to 40% and less than 60%)
- Stellaria media (activity level) ([6]; Table 2, dose 250 g a.i./ha): 4 (Level 4: growth control rate is greater than or equal to 60% and less than 85%)
- Stellaria media (activity level) ([6]; Table 2, dose 500 g a.i./ha): 4 (Level 4: growth control rate is greater than or equal to 60% and less than 85%)
- Setaria viridis (activity level) ([7]; Table 3, dose 60 g a.i./ha): 3 (Level 3: growth control rate is greater than or equal to 40% and less than 60%)
- Digitaria sanguinalis (activity level) ([8]; Table 2, dose 60 g a.i./ha): 3 (Level 3: growth control rate is greater than or equal to 40% and less than 60%)
- Digitaria sanguinalis (activity level) ([8]; Table 2, dose 125 g a.i./ha): 3 (Level 3: growth control rate is greater than or equal to 40% and less than 60%)
- Digitaria sanguinalis (activity level) ([8]; Table 2, dose 250 g a.i./ha): 4 (Level 4: growth control rate is greater than or equal to 60% and less than 85%)
- Digitaria sanguinalis (activity level) ([8]; Table 2, dose 500 g a.i./ha): 4 (Level 4: growth control rate is greater than or equal to 60% and less than 85%)
- Digitaria sanguinahs (activity level) ([8]; Table 3, dose 60 g a.i./ha): 3 (Level 3: growth control rate is greater than or equal to 40% and less than 60%)
- Echinochloa crusgah (activity level) ([9]; Table 2, dose 60 g a.i./ha): 3 (Level 3: growth control rate is greater than or equal to 40% and less than 60%)
- Echinochloa crusgah (activity level) ([9]; Table 2, dose 125 g a.i./ha): 4 (Level 4: growth control rate is greater than or equal to 60% and less than 85%)
- Echinochloa crusgah (activity level) ([9]; Table 2, dose 250 g a.i./ha): 4 (Level 4: growth control rate is greater than or equal to 60% and less than 85%)
- Echinochloa crusgah (activity level) ([9]; Table 2, dose 500 g a.i./ha): 4 (Level 4: growth control rate is greater than or equal to 60% and less than 85%)
- Echinochloa crusgali (activity level) ([9]; Table 3, dose 60 g a.i./ha): 3 (Level 3: growth control rate is greater than or equal to 40% and less than 60%)
- Abutilion theophrasti (activity level) ([10]; Table 2, dose 60 g a.i./ha): 4 (Level 4: growth control rate is greater than or equal to 60% and less than 85%)
- Abutilion theophrasti (activity level) ([10]; Table 2, dose 125 g a.i./ha): 4 (Level 4: growth control rate is greater than or equal to 60% and less than 85%)
- Abutilion theophrasti (activity level) ([10]; Table 2, dose 250 g a.i./ha): 4 (Level 4: growth control rate is greater than or equal to 60% and less than 85%)
- Abutilion theophrasti (activity level) ([10]; Table 2, dose 500 g a.i./ha): 4 (Level 4: growth control rate is greater than or equal to 60% and less than 85%)
- Abutilon theophrasti (activity level) ([10]; Table 3, dose 60 g a.i./ha): 4 (Level 4: growth control rate is greater than or equal to 60% and less than 85%)
- Control effect of (i) alone at corresponding dose ([11]; Cyperus difformis, (i) 1 g a.i./mu): 7.8%
- Control effect of (i) alone at corresponding dose ([11]; Cyperus difformis, (i) 5 g a.i./mu): 36.5%
- Control effect of (i) alone at corresponding dose ([11]; Digitaria sanguinalis, (i) 1 g a.i./mu): 18.2%
- Control effect of (i) alone at corresponding dose ([11]; Digitaria sanguinalis, (i) 2 g a.i./mu): 40.6%
- Control effect of (i) alone at corresponding dose ([11]; Digitaria sanguinalis, (i) 3 g a.i./mu): 65.3%
- Control effect of (i) alone at corresponding dose ([11]; Echinochloa phyllopogon, (i) 1 g a.i./mu): 12.6%
- Control effect of (i) alone at corresponding dose ([11]; Echinochloa phyllopogon, (i) 2 g a.i./mu): 26.8%
- Control effect of (i) alone at corresponding dose ([11]; Echinochloa phyllopogon, (i) 3 g a.i./mu): 53.7%
- Control effect of (i) alone at corresponding dose ([11]; Leptochloa chinensis, (i) 5 g a.i./mu): 6.5%
- Control effect of (i) alone at corresponding dose ([11]; Leptochloa chinensis, (i) 15 g a.i./mu): 30.6%
- Control effect of (i) alone at corresponding dose ([11]; Monochoria vaginalis, (i) 3 g a.i./mu): 7.8%
- Control effect of (i) alone at corresponding dose ([11]; Monochoria vaginalis, (i) 5 g a.i./mu): 7.8%
- Control effect of (i) alone at corresponding dose ([11]; Monochoria vaginalis, (i) 15 g a.i./mu): 30.9%
- Control effect of (i) alone at corresponding dose ([11]; Sagittaria trifolia, (i) 1 g a.i./mu): 19.7%
- Control effect of (i) alone at corresponding dose ([11]; Sagittaria trifolia, (i) 3 g a.i./mu): 50.3%

Compound: CCC[S@+]([O-])c1c(C(F)(F)F)ccc(C(=O)Nc2nnc(C)o2)c1F [1-8 (S-configuration)]
- inhibition at 30 g/ha ([1]; Setaria viridis, post-emergence, read-out: Green Setaria viridis (30 g a.i./ha) inhibition rate): 0%
- inhibition at 60 g/ha ([1]; Setaria viridis, post-emergence, read-out: Green Setaria viridis (60 g a.i./ha) inhibition rate): 15%
- inhibition at 30 g/ha ([2]; Digitaria sanguinalis, post-emergence, read-out: Digitaria sanguinalis (30 g a.i./ha) inhibition rate): 0%
- inhibition at 60 g/ha ([3]; Dinebra chinensis, post-emergence, read-out: Leptochloa chinensis (60 g a.i./ha) inhibition rate): 0%
- inhibition at 125 g/ha ([3]; Dinebra chinensis, post-emergence, read-out: Leptochloa chinensis (125 g a.i./ha) inhibition rate): 10%
- activity against key weed Leptochloa chinensis / key weeds, in words ([3]; in vivo): lower activity
- inhibition at 30 g/ha ([4]; Abutilon theophrasti, post-emergence, read-out: Ablation theophrasti (30 g a.i./ha) inhibition rate): 0%
- Rice (Longyang 16) (250 g a.i./ha) inhibition rate ([12]; 250 g a.i./ha): 15%
- Rice (Longyang 16) (500 g a.i./ha) inhibition rate ([12]; 500 g a.i./ha): 25%
- safety on rice (Longyang 16), in words ([12]; in vivo): not safe

Compound: Cc1nnc(NC(=O)c2ccc(C(F)(F)F)c([S@+]([O-])CCCCl)c2F)o1 [1-414 (R-configuration)]
- Monochoria vaginalis (activity level) [13]: 5 (Level 5: growth control rate is above 85%)
- Leptochloa chinensis (activity level) [14]: 5 (Level 5: growth control rate is above 85%)
- Echinochloa crusgali (activity level) [15]: 5 (Level 5: growth control rate is above 85%)
- Sagittaria trifolia (activity level) [16]: 5 (Level 5: growth control rate is above 85%)
- Setaria viridis (activity level) ([7]; Table 3, dose 500 g a.i./ha): 5 (Level 5: growth control rate is above 85%)
- Digitaria sanguinahs (activity level) ([8]; Table 3, dose 500 g a.i./ha): 5 (Level 5: growth control rate is above 85%)
- Echinochloa crusgali (activity level) ([9]; Table 3, dose 500 g a.i./ha): 5 (Level 5: growth control rate is above 85%)
- Rice (safety level) [17]: 0 (Level 0: growth control rate is less than 5%)
